Patent publication US20100317581A1, “Ipamorelin Diacetate Injection and Infusion Solutions” (Helsinn Therapeutics (U.S.), Inc., priority 2009, published 2010)
In brackets after ≈: the same amount, converted by molar mass. Where a name gives a salt, the structure may show the parent alone. Read-outs that look alike come from different tables or passages of the source. Where a SMILES comes first, the peptide text is derived from it. [ ]: non-standard residue; d: D form. d2Nal = N[C@H](Cc1ccc2ccccc2c1)C(=O)O; Aib = CC(C)(N)C(=O)O

Test: Solubility as a function of pH / solubility in pure water
Type: physicochemical
Procedure: The solubility of ipamorelin free base at different pH values is shown graphically in FIG. 1. At pH values less than approximately 10, the drug is very soluble in aqueous media (>100 mg/ml).
This dramatic change in solubility around pH 10 is reflected in the solubilities of ipamorelin free base and its diacetate salt in pure water. The diacetate salt dissolves readily: it is capable of producing solutions greater than 100 mg/ml, with a final pH of about 7.5. The free base is much less soluble; only about 1.5 mg/ml was measured in a saturated solution, pH=9.83. However, solutions of much higher concentration can be achieved by simply adjusting the pH to around neutrality, using a solution of HCl or a similar acid.

Row | solubility (aqueous media, pH values less than approximately 10, read-out: solubility in aqueous media) [mg/mL] | solubility (pure water, saturated solution, pH=9.83, read-out: solubility in pure water (saturated solution)) [mg/mL] | solubility (pH 7.5, pure water, final pH of about 7.5, read-out: solubility in pure water) [mg/mL] | Compound
1 | > 100 | ~1.5 (≈ 2110 µM) |  | CC(C)(N)C(=O)N[C@@H](Cc1c[nH]cn1)C(=O)N[C@H](Cc1ccc2ccccc2c1)C(=O)N[C@H](Cc1ccccc1)C(=O)N[C@@H](CCCCN)C(N)=O [ipamorelin free base, α-Methylalanine-L-histidine-D-β-(2-naphthyl)-alanine-D-phenylalanine-L-lysinamide] (H-[Aib]H[d2Nal][dF]K-NH2)
2 |  |  | > 100 | CC(C)(N)C(=O)N[C@@H](Cc1c[nH]cn1)C(=O)N[C@H](Cc1ccc2ccccc2c1)C(=O)N[C@H](Cc1ccccc1)C(=O)N[C@@H](CCCCN)C(N)=O [diacetate salt] (H-[Aib]H[d2Nal][dF]K-NH2)
